From ChEMBL document CHEMBL4011651, “Discovery of the Irreversible Covalent FGFR Inhibitor 8-(3-(4-Acryloylpiperazin-1-yl)propyl)-6-(2,6-dichloro-3,5-dimethoxyphenyl)-2-(methylamino)pyrido[2,3-d]pyrimidin-7(8H)-one (PRN1371) for the Treatment of Solid Tumors” (J Med Chem, 2017)

Assays:
[1] = Volume of distribution at steady state in Sprague-Dawley rat at 2 mg/kg, iv; assay type: ADME, organism-based; settings: in vivo, read-out: Vdss
[2] = Half life in Sprague-Dawley rat at 20 mg/kg, po; assay type: ADME, organism-based; settings: in vivo
[3] = Oral bioavailability in cynomolgus monkey at 10 mg/kg; assay type: ADME, organism-based, Macaca fascicularis; settings: in vivo
[4] = Cmax in Beagle dog at 2 mg/kg, iv; assay type: ADME, organism-based, Canis lupus familiaris; set-up: dose 2 mg/kg, route intravenous; settings: in vivo
[5] = in vitro; settings: human, whole blood
[6] = Volume of distribution at steady state in cynomolgus monkey at 1.23 mg/kg, iv; assay type: ADME, organism-based, Macaca fascicularis; settings: in vivo, read-out: Vdss
[7] = Clearance in cynomolgus monkey at 1.23 mg/kg, iv; assay type: ADME, organism-based, Macaca fascicularis; settings: in vivo
[8] = AUC in Beagle dog at 2 mg/kg, iv; assay type: ADME, organism-based, Canis lupus familiaris; settings: in vivo
[9] = Half life in cynomolgus monkey at 10 mg/kg, po; assay type: ADME, organism-based, Macaca fascicularis; settings: in vivo
[10] = Cmax in Beagle dog at 10 mg/kg, po; assay type: ADME, organism-based, Canis lupus familiaris; set-up: dose 10 mg/kg, route oral; settings: in vivo
[11] = system: Plasma; assay: Plasma concentration in rat at 10 mg/kg, po measured at 12 hrs post dose; assay type: ADME, organism-based; settings: in vivo
[12] = Oral bioavailability in Beagle dog at 10 mg/kg; assay type: ADME, organism-based, Canis lupus familiaris; settings: in vivo
[13] = Clearance in Sprague-Dawley rat at 2 mg/kg, iv; assay type: ADME, organism-based; settings: in vivo
[14] = AUC in cynomolgus monkey at 1.23 mg/kg, iv; assay type: ADME, organism-based, Macaca fascicularis; settings: in vivo
[15] = Clearance in Beagle dog at 2 mg/kg, iv; assay type: ADME, organism-based, Canis lupus familiaris; settings: in vivo
[16] = in vitro; settings: human, plasma
[17] = Cmax in Sprague-Dawley rat at 2 mg/kg, iv; assay type: ADME, organism-based; set-up: dose 2 mg/kg, route intravenous; settings: in vivo
[18] = Half life in cynomolgus monkey at 1.23 mg/kg, iv; assay type: ADME, organism-based, Macaca fascicularis; settings: in vivo
[19] = AUC in cynomolgus monkey at 10 mg/kg, po; assay type: ADME, organism-based, Macaca fascicularis; settings: in vivo
[20] = Half life in Sprague-Dawley rat at 2 mg/kg, iv; assay type: ADME, organism-based; settings: in vivo
[21] = AUC in Sprague-Dawley rat at 20 mg/kg, po; assay type: ADME, organism-based; settings: in vivo
[22] = Cmax in cynomolgus monkey at 1.23 mg/kg, iv; assay type: ADME, organism-based, Macaca fascicularis; set-up: dose 1.23 mg/kg, route intravenous; settings: in vivo
[23] = Cmax in cynomolgus monkey at 10 mg/kg, po; assay type: ADME, organism-based, Macaca fascicularis; set-up: dose 10 mg/kg, route oral; settings: in vivo
[24] = Plasma concentration in rat at 10 mg/kg, po measured at 1 hr post dose; assay type: ADME, organism-based
[25] = AUC in Beagle dog at 10 mg/kg, po; assay type: ADME, organism-based, Canis lupus familiaris; settings: in vivo
[26] = in vivo; settings: Sprague-Dawley, rat, iv, 2 mg/kg
[27] = Volume of distribution at steady state in Beagle dog at 2 mg/kg, iv; assay type: ADME, organism-based, Canis lupus familiaris; settings: in vivo, read-out: Vdss
[28] = Cmax in Sprague-Dawley rat at 20 mg/kg, po; assay type: ADME, organism-based; set-up: dose 20 mg/kg, route oral; settings: in vivo
[29] = in vitro; settings: mouse, whole blood

Work on `C=CC(=O)N1CCN(CCCn2c(=O)c(-c3c(Cl)c(OC)cc(OC)c3Cl)cc3cnc(NC)nc32)CC1` [PRN-1371] yielded a Vd [1] of 7.2 L/kg, a half-life [2] of 226 min and a bioavailability [3] of 2.3%. It also gave a Cmax [4] of 1090 ng/mL, a remaining at 2 h [5] of 73% and a Vd [6] of 1.14 L/kg. For the same compound, the clearance [7] was 42.9 mL/min/kg, the AUC [8] was 284 ng·h/mL and the half-life [9] was 29.2 min. For the same compound, the Cmax [10] was 1100 ng/mL, the Drug uptake [11] was “Not Active” and the bioavailability [12] was 94%. The clearance [13] was 160 mL/min/kg, the AUC [14] was 472 ng·h/mL and the clearance [15] was 117 mL/min/kg. It also gave a remaining at 2 h [16] of 70%, a Cmax [17] of 596 ng/mL and a half-life [18] of 20.9 min. The AUC [19] was 84.4 ng·h/mL, the half-life [20] was 45.8 min and the AUC [21] was 4350 ng·h/mL. For the same compound, the Cmax [22] was 999 ng/mL, the Cmax [23] was 95.8 ng/mL and the concentration at 1 h [24] was 538 ng/mL. For the same compound, the AUC [25] was 1340 ng·h/mL, the AUC [26] was 208 ng·h/mL and the Vd [27] was 2.9 L/kg. It also gave a Cmax [28] of 1780 ng/mL.

Compound `C=CC(=O)Nc1ccc(CCn2c(=O)c(-c3cc(OC)cc(OC)c3Cl)cc3cnc(NC)nc32)cn1` has a half-life [29] of 51 min.
